Reference: PMC9391280, “A High-Throughput Fluorescent Turn-On Assay for Inhibitors of DHHC Family Proteins” (ACS Chemical Biology, 2022)
Read-outs that look alike come from different tables or passages of the source.

Experiments:
[1] = target: T1, zDHHC2 (Homo sapiens, UniProt Q9UIJ5); test: PTP fluorogenic assay, single concentration […]; format: biochemical
T1 sequence (Q9UIJ5 1-367): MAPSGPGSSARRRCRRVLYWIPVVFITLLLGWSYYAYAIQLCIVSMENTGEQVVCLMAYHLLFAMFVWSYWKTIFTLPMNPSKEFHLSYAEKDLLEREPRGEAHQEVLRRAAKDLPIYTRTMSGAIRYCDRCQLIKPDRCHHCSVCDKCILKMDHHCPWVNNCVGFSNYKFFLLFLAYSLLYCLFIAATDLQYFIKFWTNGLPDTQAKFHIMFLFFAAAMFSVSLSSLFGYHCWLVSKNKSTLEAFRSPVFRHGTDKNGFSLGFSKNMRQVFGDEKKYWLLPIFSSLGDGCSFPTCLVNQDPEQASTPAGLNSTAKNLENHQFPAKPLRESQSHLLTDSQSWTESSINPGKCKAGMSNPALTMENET

[2] = target: T2, zDHHC3 (Homo sapiens, UniProt Q9NYG2); test: PTP fluorogenic assay, single concentration […]; format: biochemical
T2 sequence (Q9NYG2 1-299): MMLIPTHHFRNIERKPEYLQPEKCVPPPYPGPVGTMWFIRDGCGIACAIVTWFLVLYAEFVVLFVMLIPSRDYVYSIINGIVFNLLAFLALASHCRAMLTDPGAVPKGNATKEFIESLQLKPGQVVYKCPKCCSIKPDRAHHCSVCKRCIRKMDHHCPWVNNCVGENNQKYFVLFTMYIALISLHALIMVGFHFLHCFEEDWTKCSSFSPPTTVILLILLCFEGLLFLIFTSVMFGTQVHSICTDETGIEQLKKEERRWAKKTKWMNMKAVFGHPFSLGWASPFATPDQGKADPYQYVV

[3] = target: T3, zDHHC20 (Homo sapiens, UniProt Q5W0Z9); test: PTP fluorogenic turn-on assay with purified zDHHC20; format: biochemical
T3 sequence (Q5W0Z9 1-365): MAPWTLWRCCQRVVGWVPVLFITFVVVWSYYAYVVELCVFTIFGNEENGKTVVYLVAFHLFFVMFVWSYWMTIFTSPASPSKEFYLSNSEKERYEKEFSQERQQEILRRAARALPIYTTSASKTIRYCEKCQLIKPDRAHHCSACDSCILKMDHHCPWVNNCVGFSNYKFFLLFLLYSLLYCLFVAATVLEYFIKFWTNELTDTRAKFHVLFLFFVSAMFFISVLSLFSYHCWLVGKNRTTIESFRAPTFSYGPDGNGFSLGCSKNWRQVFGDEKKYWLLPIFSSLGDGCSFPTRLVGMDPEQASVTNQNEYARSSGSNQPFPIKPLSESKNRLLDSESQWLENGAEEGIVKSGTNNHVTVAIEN

[4] = target: T1, zDHHC2; test: fluorogenic probe uncaging by purified enzyme ([…] probe); format: biochemical
[5] = target: T2, zDHHC3; test: as above; format: biochemical
[6] = substrate: CCCCCCCCCCCCCCCC(=O)SCCN(C)C(=O)Oc1ccc2c(c1)Oc1cc(N3CCN(C(=O)CCCC(=O)O)CC3)ccc1C21OC(=O)c2ccccc21; test: purified protein; conditions: palmitoyl-CoA mimetic; turnover depends on the key catalytic cysteine of the DHHC motif

## CCCCCCCCCCCCCCC(Br)C(=O)O (stereo not shown) [2BP, 2-Bromopalmitate]
[1]
  PTP fluorogenic assay, single concentration 20 μM: both CMA and 2BP were able to inhibit zDHHC2, zDHHC3, and zDHHC20
[2]
  PTP fluorogenic assay, single concentration 20 μM: both CMA and 2BP were able to inhibit zDHHC2, zDHHC3, and zDHHC20
[3]
  IC50: 2020 ± 290 nM

## C=CC(=O)N(CC#N)CCCCCCCCCCCCCC [CMA, cyanomyracrylamide]
[3]; read-out: IC50
  IC50: 463 ± 70 nM

## CCCCCCCCCCCCCCCC(=O)SCCN(C)C(=O)Oc1ccc2c(c1)Oc1cc(N3CCN(C(=O)CCN4CCOCC4)CC3)ccc1C21OC(=O)c2ccccc21 (stereo not shown) [PTP-3]
[4]
  fluorogenic probe uncaging by purified enzyme (4 μM probe): PTP-3, the morpholino compound, was the best substrate for these two DHHCs
[5]
  fluorogenic probe uncaging by purified enzyme (4 μM probe): PTP-3, the morpholino compound, was the best substrate for these two DHHCs

B1: zDHHC20 (Homo sapiens) (protein)
chain: MAPWTLWRCCQRVVGWVPVLFITFVVVWSYYAYVVELCVFTIFGNEENGKTVVYLVAFHLFFVMFVWSYWMTIFTSPASPSKEFYLSNSEKERYEKEFSQERQQEILRRAARALPIYTTSASKTIRYCEKCQLIKPDRAHHCSACDSCILKMDHHCPWVNNCVGFSNYKFFLLFLLYSLLYCLFVAATVLEYFIKFWTNELTDTRAKFHVLFLFFVSAMFFISVLSLFSYHCWLVGKNRTTIESFRAPTFSYGPDGNGFSLGCSKNWRQVFGDEKKYWLLPIFSSLGDGCSFPTRLVGMDPEQASVTNQNEYARSSGSNQPFPIKPLSESKNRLLDSESQWLENGAEEGIVKSGTNNHVTVAIEN
[6]
  Km: 24.3 µM
